According to ChEMBL document CHEMBL4622952, “Synthesis and biological evaluation of Schizandrin derivatives as tubulin polymerization inhibitors” (Bioorg Med Chem Lett, 2020):
Active and inactive are the calls of the source. The rule behind the calls is not given here.

Experiments:
[1] = Induction of apoptosis in human RKOP3 cells assessed as live cells at 3.3 uM measured after 48 hrs by annexinV-FITC/propidium iodide staining based flow cytometry analysis (reference value: 98.19 %); format: functional
[2] = Cell cycle arrest in human RKOP3 cells assessed as accumulation at G0/G1 phase at 3.3 uM measured after 24 hrs by propidium iodide staining based flow cytometry analysis (reference value: 59.59 %); format: functional
Tubulin (Homo sapiens) [3] = biological target: T1, Tubulin (Homo sapiens) (UniProt P68371+Q9H4B7+P0DPH7+P68366+Q13509+Q71U36+P04350+Q3ZCM7+P07437+P68363+Q9BQE3+Q6PEY2+Q13885+Q9BVA1+Q9BUF5); assay: Inhibition of tubulin polymerization in human HeLa cells assessed as disruption of microtubule network at 10 uM measured after 24 hrs by immunofluorescence assay; format: cell-based
Tubulin (Homo sapiens) [4] = biological target: T1, Tubulin (Homo sapiens); assay: Inhibition of tubulin […] in human DU145 cells assessed as increase in soluble fraction of tubulin at […] measured after 24 hrs by Western blot analysis; format: cell-based; settings: DU-145
[5] = Induction of apoptosis in human RKOP3 cells assessed as necrotic cells at 3.3 uM measured after 48 hrs by annexinV-FITC/propidium iodide staining based flow cytometry analysis (reference value: 0 %); format: functional
[6] = Induction of apoptosis in human RKOP3 cells assessed as early apoptotic cells at 3.3 uM measured after 48 hrs by annexinV-FITC/propidium iodide staining based flow cytometry analysis (reference value: 1.8 %); format: functional
HeLa = assay: Antiproliferative activity against human HeLa cells assessed as reduction in cell viability measured after 48 hrs by MTT assay; format: functional, cell-based
[7] = Induction of apoptosis in human RKOP3 cells assessed as live cells at 5 uM measured after 48 hrs by annexinV-FITC/propidium iodide staining based flow cytometry analysis (reference value: 98.19 %); format: functional
[8] = Induction of apoptosis in human RKOP3 cells assessed as late apoptotic cells at 1.5 uM measured after 48 hrs by annexinV-FITC/propidium iodide staining based flow cytometry analysis (reference value: 0.01 %); format: functional
HEK293 = assay: Cytotoxicity against human HEK293 cells assessed as reduction in cell viability measured after 48 hrs by MTT assay; format: cell-based; settings: Homo sapiens, HEK293, 48 h; read-out: IC50
[9] = Induction of apoptosis in human RKOP3 cells assessed as early apoptotic cells at 1.5 uM measured after 48 hrs by annexinV-FITC/propidium iodide staining based flow cytometry analysis (reference value: 1.8 %); format: functional
A549 = assay: Antiproliferative activity against human A549 cells assessed as reduction in cell viability measured after 48 hrs by MTT assay; format: functional, cell-based
[10] = Induction of apoptosis in human RKOP3 cells assessed as live cells at 1.5 uM measured after 48 hrs by annexinV-FITC/propidium iodide staining based flow cytometry analysis (reference value: 98.19 %); format: functional
Homo sapiens = species on record: Homo sapiens; assay: (§1) Antiproliferative activity against human RKOP3 cells assessed as reduction in cell viability measured after 48 hrs by MTT assay; format: functional, cell-based
[11] = as §1; format: functional, cell-based
[12] = Induction of apoptosis in human RKOP3 cells assessed as necrotic cells at 1.5 uM measured after 48 hrs by annexinV-FITC/propidium iodide staining based flow cytometry analysis (reference value: 0 %); format: functional
[13] = Cell cycle arrest in human RKOP3 cells assessed as accumulation at G0/G1 phase at 1.5 uM measured after 24 hrs by propidium iodide staining based flow cytometry analysis (reference value: 59.59 %); format: functional
[14] = Cell cycle arrest in human RKOP3 cells assessed as accumulation at G0/G1 phase at 5 uM measured after 24 hrs by propidium iodide staining based flow cytometry analysis (reference value: 59.59 %); format: functional
[15] = Induction of apoptosis in human RKOP3 cells assessed as late apoptotic cells at 3.3 uM measured after 48 hrs by annexinV-FITC/propidium iodide staining based flow cytometry analysis (reference value: 0.01 %); format: functional
[16] = Induction of apoptosis in human RKOP3 cells assessed as necrotic cells at 5 uM measured after 48 hrs by annexinV-FITC/propidium iodide staining based flow cytometry analysis (reference value: 0 %); format: functional
[17] = Induction of apoptosis in human RKOP3 cells assessed as early apoptotic cells at 5 uM measured after 48 hrs by annexinV-FITC/propidium iodide staining based flow cytometry analysis (reference value: 1.8 %); format: functional
DU-145 = assay: Antiproliferative activity against human DU145 cells assessed as reduction in cell viability measured after 48 hrs by MTT assay; format: functional, cell-based
[18] = Induction of apoptosis in human RKOP3 cells assessed as late apoptotic cells at 5 uM measured after 48 hrs by annexinV-FITC/propidium iodide staining based flow cytometry analysis (reference value: 0.01 %); format: functional

Question: What does the source list for `CCCCCCCCCC(=O)O/N=C1\C=C2C[C@H](C)[C@@]3(C)Cc4cc(OC)c(OC)c(OC)c4C23C(OC)=C1OC` (stereo partly specified)?
Answer: Activity [1]: 90.64%; Activity [2]: 55.32%; inhibition (Tubulin (Homo sapiens) [3]): Active; inhibition (Tubulin (Homo sapiens) [4]): Active; Activity [5]: 0.02%; Activity [6]: 9.05%; IC50 (HeLa): 60.2 µM; inhibition (HeLa): Dose-dependent effect; Activity [7]: 76.06%; Activity [8]: 0.57%; IC50 (HEK293): 84.5 µM; Activity [9]: 7.02%; inhibition (A549): Dose-dependent effect; IC50 (A549; A549, 48 h): 12.3 µM; Activity [10]: 92.41%; inhibition (Homo sapiens): Dose-dependent effect; IC50 [11]: 3.35 µM; Activity [12]: 0%; Activity [13]: 60.68%; Activity [14]: 50.56%; Activity [15]: 0.29%; Activity [16]: 0.04%; Activity [17]: 21.6%; inhibition (DU-145): Dose-dependent effect; IC50 (DU-145; DU-145, 48 h): 10.5 µM; Activity [18]: 2.3%
